Reference: patent publication US9730937B2, “RAF kinase modulator compounds and methods of use thereof” (AMBIT BIOSCIENCES CORPORATION, priority 2008, dated 2017)
Like-named read-outs stand apart in the source and are kept apart here.

Assays:
mutant BRAF kinase = mutant BRAF kinase (Homo sapiens (Human), UniProt P15056, V600E); settings: read-out: BRAF V600E Kd, class symbols
[1] = test system: panel of 290 distinct kinases (321 in the larger panel), excluding mutant variants; settings: kinase selectivity score, class symbols
Experimental: (§1) The liganded beads were blocked with excess biotin and washed with blocking buffer (SeaBlock (Pierce), 1% BSA, 0.05% Tween 20, 1 mM DTT) to remove unbound ligand and to reduce non-specific binding. […] Test compounds were prepared as 100× stocks in DMSO and rapidly diluted into the aqueous environment. DMSO was added to control assays lacking a test compound. Primary screen interactions were performed in polypropylene 384-well plates in a final volume of 34 μL, while Kd determinations were performed in polystyrene 96-well plates in a final volume of 135 μL. […] The kinase concentration in the eluates was measured by quantitative PCR. Each kinase was tested individually against each compound. KdS were determined using eleven serial threefold dilutions. A selectivity score, which is a quantitative measure of selectivity of a compound against a panel of enzymes, may be calculated for a compound by dividing the number of enzymes for which a compound meets a set criteria, (for example, a binding constant of 100 nM or less), by the total number of enzymes tested. […] (Note, for those compounds tested in a larger kinase panel, as indicated by an asterisk (*) next to the S35 score, the divisor is 321 (i.e. the larger panel contains 321 distinct kinases, excluding mutant variants.)).

RAF kinases = RAF kinases (Homo sapiens (Human), UniProt P04049); settings: read-out: RAF1 Kd, class symbols
Sequence of RAF kinases (P04049 whole entry): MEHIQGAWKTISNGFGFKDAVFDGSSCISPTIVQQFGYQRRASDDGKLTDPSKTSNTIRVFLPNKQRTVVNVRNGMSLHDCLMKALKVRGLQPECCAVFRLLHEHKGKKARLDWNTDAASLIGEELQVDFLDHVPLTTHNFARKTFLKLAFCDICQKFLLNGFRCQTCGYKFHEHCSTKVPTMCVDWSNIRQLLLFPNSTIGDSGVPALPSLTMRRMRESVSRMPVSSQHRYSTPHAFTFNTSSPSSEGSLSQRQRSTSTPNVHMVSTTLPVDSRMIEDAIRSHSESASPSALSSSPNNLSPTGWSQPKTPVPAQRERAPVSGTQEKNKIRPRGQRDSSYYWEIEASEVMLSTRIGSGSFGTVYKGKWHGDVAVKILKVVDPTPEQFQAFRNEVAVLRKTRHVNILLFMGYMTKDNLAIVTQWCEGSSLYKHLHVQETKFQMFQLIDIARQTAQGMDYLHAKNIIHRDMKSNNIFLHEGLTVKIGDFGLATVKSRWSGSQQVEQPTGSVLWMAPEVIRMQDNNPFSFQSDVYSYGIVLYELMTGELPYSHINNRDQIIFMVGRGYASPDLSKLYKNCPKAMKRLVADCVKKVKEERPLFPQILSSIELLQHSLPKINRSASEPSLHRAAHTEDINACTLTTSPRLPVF
Experimental: as §1

[2] = value marked * (larger kinase panel)

Sequence of mutant BRAF kinase (P15056 whole entry V600E): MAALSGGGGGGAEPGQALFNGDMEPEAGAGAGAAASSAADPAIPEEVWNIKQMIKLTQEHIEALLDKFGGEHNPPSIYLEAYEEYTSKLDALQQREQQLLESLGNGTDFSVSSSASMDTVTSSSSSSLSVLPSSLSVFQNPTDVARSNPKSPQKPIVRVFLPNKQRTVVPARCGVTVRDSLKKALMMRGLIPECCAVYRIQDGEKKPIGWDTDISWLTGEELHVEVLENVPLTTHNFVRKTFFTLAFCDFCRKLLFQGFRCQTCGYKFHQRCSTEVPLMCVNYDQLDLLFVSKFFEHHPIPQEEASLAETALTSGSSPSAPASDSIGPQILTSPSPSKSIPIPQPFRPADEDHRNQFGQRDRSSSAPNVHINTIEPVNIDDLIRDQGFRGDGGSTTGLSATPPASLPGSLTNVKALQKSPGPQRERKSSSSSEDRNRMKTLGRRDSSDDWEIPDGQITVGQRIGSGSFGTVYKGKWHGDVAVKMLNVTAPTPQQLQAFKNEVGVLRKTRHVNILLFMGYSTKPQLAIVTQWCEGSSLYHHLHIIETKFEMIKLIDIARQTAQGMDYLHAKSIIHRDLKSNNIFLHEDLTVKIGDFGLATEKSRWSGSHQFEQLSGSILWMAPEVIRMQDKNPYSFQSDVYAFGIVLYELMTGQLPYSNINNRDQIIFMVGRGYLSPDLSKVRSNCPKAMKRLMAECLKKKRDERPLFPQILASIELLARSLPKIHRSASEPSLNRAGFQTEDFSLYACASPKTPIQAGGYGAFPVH

| SMILES | Kd (mutant BRAF kinase) | S35 ([1]; 290 distinct kinases) | Kd (RAF kinases) | S35 [1, 2] |
| --- | --- | --- | --- | --- |
| COc1cc2ncnc(Sc3cccc(NC(=O)Nc4cc(C(C)(C)C)on4)c3)c2cc1OCCN1CCN(C)CC1 [Ex 67, 1-(5-tert-butylisoxazol-3-yl)-3-(3-(7-methoxy-6-(2-(4-methylpiperazin-1-yl)ethoxy)quinazolin-4-ylthio)phenyl)urea] | < 250 nM | C (0.20 < C ≦ 0.40) | – | – |
| COc1cc2ncnc(Sc3cccc(NC(=O)Nc4cc(C(C)(C)C)on4)c3)c2cc1OCCN1CCN(CCO)CC1 [Ex 68, 1-(5-tert-butylisoxazol-3-yl)-3-(3-(6-(2-(4-(2-hydroxyethyl)piperazin-1-yl)ethoxy)-7-methoxyquinazolin-4-ylthio)phenyl)urea] | < 250 nM | C (0.20 < C ≦ 0.40) | – | – |
| COc1cc2ncnc(Sc3cccc(NC(=O)Nc4cc(C(C)(C)C)on4)c3)c2cc1OCCN1CCN(S(C)(=O)=O)CC1 [Ex 69, 1-(5-tert-butylisoxazol-3-yl)-3-(3-(7-methoxy-6-(2-(4-(methylsulfonyl)piperazin-1-yl)ethoxy)quinazolin-4-ylthio)phenyl)urea] | < 250 nM | C (0.20 < C ≦ 0.40) | – | – |
| COc1cc2c(Sc3cccc(NC(=O)Nc4cc(C(C)(C)C)on4)c3)ncnc2cc1OCCCN1CCN(C)CC1 [Ex 73, 1-(5-tert-butylisoxazol-3-yl)-3-(3-(6-methoxy-7-(3-(4-methylpiperazin-1-yl)propoxy)quinazolin-4-ylthio)phenyl)urea] | < 250 nM | D (D > 0.40) | – | – |
| COc1cc2c(Sc3cccc(NC(=O)Nc4cc(C(C)(C)C)on4)c3)ncnc2cc1OCCCN1CCN(CCO)CC1 [Ex 75, 1-(5-tert-butylisoxazol-3-yl)-3-(3-(7-(3-(4-(2-hydroxyethyl)piperazin-1-yl)propoxy)-6-methoxyquinazolin-4-ylthio)phenyl)urea] | < 250 nM | D (D > 0.40) | – | – |
| COc1cc2c(Sc3cccc(NC(=O)Nc4cc(C(C)(C)C)on4)c3)ncnc2cc1OCCCN1CCCCC1 [Ex 76, 1-(5-tert-butylisoxazol-3-yl)-3-(3-(6-methoxy-7-(3-(piperidin-1-yl)propoxy)quinazolin-4-ylthio)phenyl)urea] | < 250 nM | D (D > 0.40) | – | – |
| COc1cc2c(Sc3cccc(NC(=O)Nc4cc(C(C)(C)C)on4)c3)ncnc2cc1OCCCN1CCN(S(C)(=O)=O)CC1 [Ex 77, 1-(5-tert-butylisoxazol-3-yl)-3-(3-(6-methoxy-7-(3-(4-(methylsulfonyl)piperazin-1-yl)propoxy)quinazolin-4-ylthio)phenyl)urea] | < 250 nM | D (D > 0.40) | – | – |
| COc1cc2c(Sc3cccc(NC(=O)Nc4cc(C(C)(C)C)on4)c3)ncnc2cc1OCCN1CCOCC1 [Ex 79, (1-(5-tert-butylisoxazol-3-yl)-3-(3-(6-methoxy-7-(2-morpholinoethoxy)quinazolin-4-ylthio)phenyl)urea)] | < 250 nM | D (D > 0.40) | – | – |
| COc1cc2c(Sc3cccc(NC(=O)Nc4cc(C(C)(C)C)on4)c3)ncnc2cc1OCCN1CCCCC1 [Ex 80, 1-(5-tert-butylisoxazol-3-yl)-3-(3-(6-methoxy-7-(2-(piperidin-1-yl)ethoxy)quinazolin-4-ylthio)phenyl)urea] | < 250 nM | C (0.20 < C ≦ 0.40) | – | – |
| COc1cc2c(Sc3cccc(NC(=O)Nc4cc(C(C)(C)C)on4)c3)ncnc2cc1OCCN1CCN(S(C)(=O)=O)CC1 [Ex 81, 1-(5-tert-butylisoxazol-3-yl)-3-(3-(6-methoxy-7-(2-(4-(methylsulfonyl)piperazin-1-yl)ethoxy)quinazolin-4-ylthio)phenyl)urea] | < 250 nM | C (0.20 < C ≦ 0.40) | – | – |
| COc1cc2c(Sc3cccc(NC(=O)Nc4cc(C(C)(C)C)on4)c3)ncnc2cc1OCCN1CCN(C)CC1 [Ex 83, 1-(5-tert-butylisoxazol-3-yl)-3-(3-(6-methoxy-7-(2-(4-methylpiperazin-1-yl)ethoxy)quinazolin-4-ylthio)phenyl)urea] | < 250 nM | C (0.20 < C ≦ 0.40) | – | – |
| CC(C)(C)c1cc(NC(=O)Nc2cccc(Sc3ncnc4ccc(OCCCN5CCS(=O)(=O)CC5)cc34)c2)no1 [Ex 90, 1-(5-tert-butyl-isoxazol-3-yl)-3-(3-{6-[3-(1,1-dioxo-thiomorpholin-4-yl)-propoxy]-quinazolin-4-ylsulfanyl}-phenyl)-urea] | < 250 nM | C (0.20 < C ≦ 0.40) | – | – |
| COc1cc2ncnc(Oc3cccc(NC(=O)Nc4cc(C(C)(C)C)on4)c3)c2cc1OCCN1CCS(=O)(=O)CC1 [Ex 91, 1-(5-tert-butyl-isoxazol-3-yl)-3-(3-{6-[2-(1,1-dioxo-thiomorpholin-4-yl)-ethoxy]-7-methoxy-quinazolin-4-yloxy}-phenyl)-urea] | < 250 nM | C (0.20 < C ≦ 0.40) | – | – |
| CC(C)(C)c1cc(NC(=O)Nc2cccc(Oc3ncnc4ccc(-c5ccc(CNCCS(C)(=O)=O)o5)cc34)c2)no1 [Ex 92, 1-(5-tert-butylisoxazol-3-yl)-3-{3-[6-(5-{[2-(methylsulfonyl)ethylamino]methyl}furan-2-yl)quinazolin-4-yloxy]phenyl}urea] | < 250 nM | C (0.20 < C ≦ 0.40) | – | – |
| COc1cc2c(Oc3cccc(NC(=O)Nc4cc(C(C)(C)C)on4)c3)ncnc2cc1O [Ex 95, 1-(5-tert-butylisoxazol-3-yl)-3-(3-(7-hydroxy-6-methoxyquinazolin-4-yloxy)phenyl)urea] | < 250 nM | C (0.20 < C ≦ 0.40) | – | – |
| COc1cc2c(Oc3cccc(NC(=O)Nc4cc(C(C)(C)C)on4)c3)ncnc2cc1O[C@H]1CCN(C)C1 [Ex 97, (S)-1-(5-tert-butylisoxazol-3-yl)-3-(3-(6-methoxy-7-(1-methylpyrrolidin-3-yloxy)quinazolin-4-yloxy)phenyl)urea mono acetate] | < 250 nM | C (0.20 < C ≦ 0.40) | – | – |
| COc1cc2c(Oc3cccc(NC(=O)Nc4cc(C(C)(C)C)on4)c3)ncnc2cc1O[C@@H]1CCN(C)C1 [Ex 99, (R)-1-(5-tert-butylisoxazol-3-yl)-3-(3-(6-methoxy-7-(1-methylpyrrolidin-3-yloxy)quinazolin-4-yloxy)phenyl)urea mono acetate] | < 250 nM | C (0.20 < C ≦ 0.40) | – | – |
| COc1cc2ncnc(Oc3cccc(NC(=O)Nc4cc(C(C)(C)C)on4)c3)c2cc1OC[C@H](O)CN1CCN(C)CC1 [Ex 112, (R)-1-(5-tert-butylisoxazol-3-yl)-3-(3-(6-(2-hydroxy-3-(4methylpiperazin-1-yl)propoxy)-7-methoxyquinazolin-4-yloxy)phenyl)urea] | < 250 nM | D (D > 0.40) | – | – |
| COc1cc2ncnc(Oc3cccc(NC(=O)Nc4cc(-c5ccccc5)on4)c3)c2cc1OC [Ex 113, 1-(3-(6,7-dimethoxyquinazolin-4-yloxy)phenyl)-3-(5-phenylisoxazol-3-yl)urea] | – | B (0.10 < B ≦ 0.20) | < 250 nM | – |
| COCCOc1cc2ncnc(Oc3cccc(NC(=O)Nc4cccc(C(C)(C)C)c4)c3)c2cc1OC [Ex 119, 1-(3-tert-butylphenyl)-3-(3-(6-methoxy-7-(2-methoxyethoxy)quinazolin-4-yloxy)phenyl)urea] | < 250 nM | – | – | C* (0.20 < C ≦ 0.40) |
| COc1cc2ncnc(Oc3cccc(NC(=O)Nc4cc(C(F)(F)F)ncn4)c3)c2cc1OC [Ex 146, 1-(3-(6,7-dimethoxyquinazolin-4-yloxy)phenyl)-3-(6-(trifluoromethyl)pyrimidin-4-yl)urea] | < 250 nM | – | – | B* (0.10 < B ≦ 0.20) |
| COc1cc2ncnc(Oc3cccc(NC(=O)Nc4cc(C(C)(F)F)no4)c3)c2cc1OC [Ex 152, 1-(3-(1,1-difluoroethyl)isoxazol-5-yl)-3-(3-(6,7-dimethoxyquinazolin-4-yloxy)phenyl)urea] | < 250 nM | – | – | C* (0.20 < C ≦ 0.40) |
| COc1cc2ncnc(Sc3cccc(NC(=O)Nc4cc(C(C)(C)C)nn4C)c3)c2cc1OC [Ex 157, 1-(3-tert-butyl-1-methyl-1H-pyrazol-5-yl)-3-(3-(6,7-dimethoxyquinazolin-4-ylthio)phenyl)urea] | < 250 nM | – | – | C* (0.20 < C ≦ 0.40) |
| COc1cc2ncnc(Sc3cccc(NC(=O)Nc4cc(C(C)(CF)CF)no4)c3)c2cc1OC [Ex 160, 1-[3-(1,3-difluoro-2-methylpropan-2-yl)isoxazol-5-yl]-3-[3-(6,7-dimethoxyquinazolin-4-ylthio]phenyl)urea] | < 250 nM | – | – | C* (0.20 < C ≦ 0.40) |
| COc1cc2ncnc(Oc3cccc(NC(=O)Nc4ccc(C(C)(C)C)cc4)c3)c2cc1OC [Ex 173, 1-(4-tert-butylphenyl)-3-(3-(6,7-dimethoxyquinazolin-4-yloxy)phenyl)urea] | < 250 nM | C (0.20 < C ≦ 0.40) | – | – |
| COc1cc2ncnc(Oc3cccc(NC(=O)Nc4ccc(Cl)c(C(F)(F)F)c4)c3)c2cc1OC [Ex 176, 1-(4-chloro-3-(trifluoromethyl)phenyl)-3-(3-(6,7-dimethoxyquinazolin-4-yloxy)phenyl)urea] | < 250 nM | C (0.20 < C ≦ 0.40) | – | – |
| COc1cccc(NC(=O)Nc2cccc(Oc3ncnc4cc(OC)c(OC)cc34)c2)c1 [Ex 178, 1-(3-(6,7-dimethoxyquinazolin-4-yloxy)phenyl)-3-(3-methoxyphenyl)urea] | < 250 nM | – | – | B* (0.10 < B ≦ 0.20) |
| CCOc1cccc(NC(=O)Nc2cccc(Oc3ncnc4cc(OC)c(OC)cc34)c2)c1 [Ex 179, 1-(3-(6,7-dimethoxyquinazolin-4-yloxy)phenyl)-3-(3-ethoxyphenyl)urea] | < 250 nM | – | – | B* (0.10 < B ≦ 0.20) |
| COCCOc1cc(NC(=O)Nc2cccc(Sc3ncnc4cc(OC)c(OC)cc34)c2)cc(C(F)(F)F)c1 [Ex 200, 1-(3-(6,7-dimethoxyquinazolin-4-ylthio)phenyl)-3-(3-(2-methoxyethoxy)-5-(trifluoromethyl)phenyl)urea] | – | C (0.20 < C ≦ 0.40) | > 1000 nM | – |
| COCCOc1cc2ncnc(Oc3cccc(NC(=O)Nc4cc(C(C)(C)C)no4)c3)c2cc1OC [Ex 202, 1-(3-tert-butylisoxazol-5-yl)-3-(3-(6-methoxy-7-(2-methoxyethoxy)quinazolin-4-yloxy)phenyl)urea] | < 250 nM | C (0.20 < C ≦ 0.40) | – | – |
